Blank lines part the entries; values can stand above or below the substance they belong to. Where no end group is shown, it is not given here.
Experiments:
[1] = system: mégacaryocytopoièse humaine; details: cited from earlier work
CAM de poulet = details: inhibition of angiogenesis in chicken CAM; cited from earlier work
cellules HEL = details: prior-art comparators; cited from earlier work
[2] = system: mégacaryocytopoïèse in vivo; assay: Megakaryocytopoiesis in vivo in normal mice (marrow and blood counts); details: souris Balb/c, 40 µg/kg s.c. twice daily for 4 days, sampled day 2 after last injection; mean ± SEM
Experimental: L'effet du dodécapeptide de l'exemple 1 sur la mégacaryocytopoïèse in vivo a été testé sur des souris normales selon une méthode décrite par HAN et al., dans l'article C.R. Acad. Sci. Paris, (1991), 313, Série III, 553-558 précité. Chaque groupe contient 5-10 souris Balb/c. Le peptide est injecté par voie sous-cutanée deux fois par jour pendant 4 jours aux concentrations de 1 µg et 5 µg par souris pour chaque administration. Les échantillons de moëlle et/ou de sang ont été prélevés au jour J2 qui suit la dernière injection.
Les souris ont été tuées par dislocation cervicale. Les cellules médullaires ont été obtenues à partir des fémurs et le sang a été obtenu par ponction cardiaque. Les cellules médullaires à la concentration de 2 x 10^5 cellules mononucléées par ml ont été remises en culture en cinq exemplaires en présence de sérum de porc aplasique pendant une semaine pour tester le nombre de progéniteurs mégacaryocytaires (CFU-MK). Le nombre des mégacaryocytes a été évalué sur des cellules médullaires non cultivées mais ensemencées dans des boîtes de culture après obtention à partir des fémurs. Le nombre de plaquettes, de globules blancs et le taux d'hémoglobine ont été mesurés en utilisant un compteur hématopoiétique automatique. […]

Substance: C-13: peptide constitué par les 13 derniers aminoacides (i.e. 58-70) de l'extrémité C-terminale du pF4 (PLYKKIIKKLLES; Platelet factor 4; UniProt P02776 89-101, looked up, fragment)
effet sur la mégacaryocytopoïèse ([1]; in vitro): aucun effet | anti-angiogénèse (CAM de poulet): propriétés anti-angiogénèse

Substance: C-24: peptide constitué par les 24 derniers aminoacides (i.e. 47-70) de l'extrémité C-terminale du pF4 (NGRKICLDLQAPLYKKIIKKLLES; Platelet factor 4; UniProt P02776 78-101, looked up, fragment)
dose inhibiting mégacaryocytopoièse humaine in vitro ([1]; relatively high dose): ~25 µg/mL | maturation des cellules HEL (cellules HEL): limitent la maturation | prolifération des cellules HEL (cellules HEL): n'agissent pas sur leur prolifération

Sang H (hémoglobine) [2]: 15,2±0,8 g/100 ml | Sang L (leucocytes) [2]: 2,80±0,4 10^3/µl
Substance: NGRKICLDLEAP [exemple 1]

Substance: C-41: peptide constitué par les 41 derniers aminoacides (i.e. 30-70) de l'extrémité C-terminale du pF4 (IKAGPHCPTAQLIATLKNGRKICLDLQAPLYKKIIKKLLES; Platelet factor 4; UniProt P02776 61-101, looked up, fragment)
anti-angiogénèse (CAM de poulet): propriétés anti-angiogénèse
